Molecular target: T1, DPAGT1 (Homo sapiens, UniProt Q9H3H5)
T1 construct: H. sapiens DPAGT1 (1-408, N-terminal 6 x HIS tag, TEV cleavage site); 6xHis purification tag with TEV site (N, cleaved yes); made in house; host or cells: Spodoptera frugiperda Sf9 insect cells (baculovirus)
T1 sequence (Q9H3H5 1-408): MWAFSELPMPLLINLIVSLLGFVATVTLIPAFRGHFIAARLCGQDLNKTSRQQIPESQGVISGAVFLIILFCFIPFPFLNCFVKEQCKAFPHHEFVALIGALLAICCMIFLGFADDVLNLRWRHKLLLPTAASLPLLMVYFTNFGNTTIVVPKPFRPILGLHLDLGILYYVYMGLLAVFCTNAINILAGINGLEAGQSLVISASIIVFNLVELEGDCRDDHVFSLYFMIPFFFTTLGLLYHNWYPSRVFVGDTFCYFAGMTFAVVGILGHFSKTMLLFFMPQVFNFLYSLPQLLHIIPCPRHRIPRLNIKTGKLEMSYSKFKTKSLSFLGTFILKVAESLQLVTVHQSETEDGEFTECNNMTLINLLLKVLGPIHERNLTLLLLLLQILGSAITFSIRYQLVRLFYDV
Experiment: Radiolabeled substrate enzyme activity assay
Format: biochemical, H. sapiens
Description: 2 μl of 2 μM DPAGT1 WT or mutant proteins in GFB buffer supplemented with 5mM extra MgCl2, 1% OGNG/CHS/cardiolipin and dolichyl monophosphate was combined with 2 μl of UDP-N-acetyl [1-14C] […] The reaction was terminated by the addition of 6 μl of 100% methanol and immediately transferred onto ice. 1 μl of sample was spotted onto a silica coated TLC plate in triplicate and run with a mobile phase consisting of chloroform, methanol, and water at a 65:25:4 ratio respectively. After the run, the TLC plate was dried thoroughly, wrapped in cling film, incubated with a phosphor imaging substrate for 4 days, then phosphor imaged using a Biorad. The pixel density of the spots corresponding to the hydrophobic product was divided by combined pixel density of the product and the substrate and multiplied by the known concentration of substrate added to ascertain the amount of product formed.

Compound	reduction of DPAGT1 activity on adding product analogue (equimolar to Dol-P and UDP-GlcNAc) [fold]	effect on DPAGT1 catalytic activity (purified DPAGT1 enzyme, Figure 6F)
N-Acetyl-1-[P’-(3Z,7Z,11Z,15Z,19Z,23Z,27Z,31E,35E,39E,43-undecamethyl-2,6,10,14,18,22,26,30,34,38,42-tetratetracontaundecaenyl) P,P'-dihydrogen diphosphate]-α-d-glucosamine diammonium salt [GlcNAc-PP-Und]	3	
CCCCCCCC(=O)N[C@H]1[C@H](O[C@H]2O[C@H](CO)[C@@H](O)[C@H](O)[C@H]2NC(C)=O)O[C@H](C[C@@H](O)[C@H]2O[C@@H](n3ccc(=O)[nH]c3=O)[C@H](O)[C@@H]2O)[C@H](O)[C@@H]1O [TUN-8,Ac, N-Octanoyl-N’-acetyl tunicamycin]		restored inhibitory activity

Source: PMC6218659, “Structures of DPAGT1 Explain Glycosylation Disease Mechanisms and Advance TB Antibiotic Design” (Cell, 2018)
